In one data set the test system is anti-coagulant activity. Conditions: cited from earlier work.
For a further data set, the system named is interstitial cystitis. Put plainly: Interstitial cystitis patient (Example 8). It counts as in vivo, human. Conditions: 100 mg per day of macrodantin and 20 mg per day of feldene, earlier treatment.
For another data set, the system named is lick granulomas. Briefly: Lick granuloma of a Labrador retriever (Example 12). It counts as in vivo, dog. Conditions: cortisone injections and hydrocortisone creams. As for the experimental part: An eleven year old Labrador retriever had suffered from lick granulomas for at least 3 years. […] This dog's granuloma was located on the left hind leg above the pasturn. The swelling around the leg measured 8 inches in diameter and the open wound measured 4×3 inches. […] This dog was injected with 10 mg of sodium hyaluronate having a molecular weight ranging from 30,000 to 400,000 (1.0 mL intramuscularly—equivalent to 10 mg). The open wound began to heal. This injection was followed up with topical application of a low molecular weight hyaluronic acid prepared by making a 1% (wt/vol) solution of hyaluronic acid (Medex Ltd) containing 1% Wintergreen Oil (Loranne Oil), 1% Spearmint Oil (Loranne Oil) and 0.5% Peppermint Oil (Loranne Oil). The topical formulation was applied at least two times per day. […] The dog has not licked this area since treatment began. Therefore, the complex carbohydrates of the present invention are able to successfully treat lick granulomas (a previously untreatable condition of dogs) and eliminate the cause of the licking.

A further data set deals with polymyositis. Put plainly: Polymyositis in the same patient (Example 4). It counts as in vivo, human. The following applies: 50 mg daily, before hyaluronate. The procedure: A person suffering from colon cancer had been unable to tolerate their colostomy and demanded that their surgeon remove the colostomy and reconnect their colon. They refused chemotherapy. They were given a formulation of 1% sodium hyaluronate (Collaborative Laboratories, Inc) which was prepared with a mixture of molecular weights of hyaluronate (as described in EXAMPLE 1). When they began taking the hyaluronate preparation, their CEA was 70.1. They have taken the hyaluronate at a dose of 10 mg three times per day mucosally and after 6 months of treatment their CEA has dropped to 4.1. They have taken no other treatments. This patient had also suffered from polymyositis for approximately 15 years. For this condition they were taking 50 mg of Prednisone daily with little relief. […] After 6 months of treatment with hyaluronate, they have been able to reduce their Prednisone to 5 mg every other day. […] The polymyositis that was successfully treated in this example was thought to represent treatment of a disease associated with the adhesion cascade or autoimmune disease.

The subject of another data set is joint pain. Conditions: oral doses between 1000 and 3000 mg/day (>15 mg/Kg); cited from earlier work.
For the next data set, the system named is chronic eczema. Briefly: Chronic eczema with yeast infection (Example 14). More on the design: species or system human. The following applies: in vivo. An excerpt: A person suffered from chronic eczema—scaly and red areas on their neck and arms. They had also been diagnosed with a yeast infection associated with the eczema. […] They initially used a topical preparation prepared according to this invention. This contained a mixture of low and high molecular weight sodium hyaluronate (prepared as in EXAMPLE 1) mixed with 1% Wintergreen Oil, 1% Spearmint Oil, and 0.5% Peppermint Oil. They applied it topically for four weeks. […] However, there was still itching and redness. They then began to orally take the 1% mixture, of low and high molecular weight sodium hyaluronate described in example 1. They reported that within 2 weeks all signs of the eczema had disappeared, the itching was gone and they felt better than they had felt for years. The oral dose required was 5 mg TID for this 91 pound person. Therefore, the dose was […].

The subject of data set [1] is Attention Deficit Hyperactivity Disorder (ADHD) complicated by Turret's Syndrome. Put plainly: Treatment of a child with ADHD complicated by Turret's Syndrome (Example 2). The class given is in vivo, human. The following applies: earlier treatment, discontinued 1.5 year before. The procedure:
This treatment was not complicated by concurrent treatment with drugs such as Ritalin as their parents were adverse to using this medication. Therefore, any response observed was related to the use of the complex carbohydrates of the present invention. They took 10 mg in the morning and 10 mg in the evening, using the solution as a mouthwash (holding it in their mouth for about 10 to 20 seconds and then swallowing). […] However, within 15 minutes of their receiving the missing dose, they became calm and returned to normal. This child has remained totally under control for 6 months. This had never been observed before, even when they were taking Ritalin. […] It has been concluded that a disease typically thought to be related to a nervous disorder or to allergies was treatable by the complex carbohydrates of the present invention.

A further data set concerns ADHD. Briefly: child with ADHD, behaviour scores (Example 7, FIG. 2). It counts as in vivo, human. Conditions: prescribed daily, earlier treatment. An excerpt:
The subject child was a person who has suffered with ADHD all their life. […] Additionally, their behavior was such that they could not socialize with other children or with adults. When in contact with other children they were unable to play, often became angered and caused physical harm to others. They had been under treatment by several physicians, psychologists and allergists all their life but none were able to help their condition. The allergists determined that they had allergies to most all foods, dust, molds, soaps and just about everything in their environment. At one time they were prescribed Ritalin daily. […]
This child attended a special school in which their Teachers reported their daily activity to their parents so that they could try to monitor their eating habits. […] Their response was monitored by using the numerical score provided by their teachers and averaging it with a numerical score of their behavior at home provided by their parents. […] Their parents have commented that they have awakened in the morning and is happy, cheerful and cooperative in getting ready for school. […] If their behavior was belligerent, bossy, angry or non-cooperative they were scored as a −40 for the day. If their reactions to foods or environmental stimuli produced such a response it was recorded as a −40. If they responded as a normal person, the score was recorded as 0. […]

Data set [2] concerns attention deficit disorder (ADD). Put plainly: Adult with attention deficit disorder, daily response (Example 5, FIG. 1). It counts as in vivo, human. Conditions: earlier treatment. An excerpt: The subject adult was a person who had suffered all their life with attention deficit disorder (ADD).
They never knew what their problem was until recently when they were diagnosed. They described their childhood as unfocused and explained that they felt as though they were in a constant mental fog—unable to think clearly, or for that matter, unable to focus on a thought at all. […] Exposure to only a few minutes in a moldy room caused this individual to become dazed, unable to think, focus or even stay awake. They had only been able to do menial jobs. They spent most of their time staring out the window with no thoughts in their mind and, even if they tried, could not focus on a thought or task. They described themself as believing all their life that they were just stupid and unable to learn. They had been to multiple physicians and psychiatrists seeking treatment with no success. They had taken Ritalin with little relief. It allowed them to function partially but they were always tired and unable to focus on anything but the simplest of tasks. They agreed to take the oral sodium hyaluronate product and their family would report how they reacted. […]
FIG. 1 plots the response of this patient while taking the compositions of the present invention. […] If there were no significant negative or positive responses during a day, the reaction rate was recorded as 0. […]

Experimental for interstitial cystitis: Additionally, they had taken 200 mg TID of Elmiron to reduce the inflammation in the bladder lining. […] In order to sleep they took Prosed/DS, Ultram, Hydroxyzine HCl, Cardura, Amitriptyline. Sometimes all were taken at some time during the day or night. […] This patient was supplied with the mixed molecular weight preparation of sodium hyaluronate as described in EXAMPLE 1. They were also supplied with a topical preparation containing 1% wt/vol. Sodium hyaluronate at a molecular weight of <30,000 combined with 1% Oil of Wintergreen, 0.5% Spearmint Oil and 0.2% Peppermint Oil. They took 10 mg of the oral preparation 4 times per day. The last dose was taken before going to bed. Additionally, at bedtime, they rubbed their lower abdomen (over the bladder) with the topical preparation.

low molecular weight heparin: the anti-coagulant activity result in the data set with anti-coagulant activity is on record as “free of anti-coagulant activity”.

Consider `CN1C(C(=O)Nc2ccccn2)=C(O)c2ccccc2S1(=O)=O` [feldene], for which, in the data set with interstitial cystitis, the side effects result is listed as “severe side effects”.

`C[C@]12CCC(=O)C=C1CC[C@@H]1[C@@H]2[C@@H](O)C[C@@]2(C)[C@H]1CC[C@]2(O)C(=O)CO` [hydrocortisone]: the “success of earlier treatment of lick granuloma” value with lick granulomas is recorded as “little success”.

For `O=C1CN(/N=C/c2ccc([N+](=O)[O-])o2)C(=O)N1` [macrodantin], in the data set with interstitial cystitis, the side effects result is reported as “severe side effects”.

With `C[C@]12C=CC(=O)C=C1CC[C@@H]1[C@@H]2C(=O)C[C@@]2(C)[C@H]1CC[C@]2(O)C(=O)CO` [Prednisone], the relief of polymyositis entry in the data set with polymyositis is recorded as “little relief”.

chondroitin sulfate: the “time until relief from joint pain” value in the data set with joint pain was 6-9 months.

Consider `C[C@]12CCC(=O)C=C1CC[C@@H]1[C@@H]2C(=O)C[C@@]2(C)[C@H]1CC[C@]2(O)C(=O)CO` [cortisone], for which the “success of earlier treatment of lick granuloma” value in the data set on lick granulomas is recorded as “little success”. Moreover, in the data set with chronic eczema, the “effect of earlier treatment on eczema” value was “no significant effect”.

`COC(=O)C(c1ccccc1)C1CCCCN1` (centres unmarked) [Ritalin]: the side effects entry in data set [1] was “problems with side effects”. In addition, in the data set on ADHD, the “reaction while taking the drug” value is “suffered hallucinations and became even more uncontrollable”. The “relief of ADD” value in data set [2] is reported as “little relief”.
